Reference: PMC5920042, “KH176 Safeguards Mitochondrial Diseased Cells from Redox Stress-Induced Cell Death by Interacting with the Thioredoxin System/Peroxiredoxin Enzyme Machinery” (Scientific Reports, 2018)

Legend:
[1] = tested on: primary human skin fibroblasts; assay: Mitochondrial superoxide detection by mitoSOX oxidation; format: cell-based; conditions: 30 min preincubation, no external stimulus
Procedure: The cells were seeded at a density of 3 × 10^3 cells/well into 96-wells black plates. After 24 h, the cells were incubated with different amounts of KH176(m) in M199 without phenol red. This medium was used in all subsequent washes and incubations. After 30 min. incubation the cells were washed and subsequently incubated 1 µM mitoSOX (#M36008, ThermoFisher). […] After 10 min incubation the cells were washed twice and incubated for 30 min. to allow the accumulation of oxidized mitoSOX in the mitochondria. […] Wells with cells but without mitoSOX were used for background correction. Experiments were performed at least three times with 3 wells per experiment.

human Prdx2 = biological target: T1, human Prdx2 (Homo sapiens, UniProt P32119); assay: Surface Plasmon Resonance binding; conditions: immobilized Prdx2, SPR, 0.31-5.0 µM
T1 construct: purchased Novus Biological NBC1-25855
T1 sequence (P32119 1-198): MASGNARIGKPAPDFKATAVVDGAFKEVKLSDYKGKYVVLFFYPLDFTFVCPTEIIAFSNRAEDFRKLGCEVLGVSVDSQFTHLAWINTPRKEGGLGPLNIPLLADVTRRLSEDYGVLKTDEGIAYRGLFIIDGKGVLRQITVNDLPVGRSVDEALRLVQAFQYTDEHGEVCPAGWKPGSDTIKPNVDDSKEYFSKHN
Procedure: Prior to protein immobilization all proteins were dialyzed against HBS-E (10 mM Hepes, 150 mM NaCl, 3 mM EDTA) buffer that was previously filtered through a 0.45 µM membrane using dialyze slide according to the manufacturer instruction. Human recombinant proteins peroxiredoxin 2 (Novus Biological NBC1-25855) and CCDC101 (Abcam Ab124547) were immobilized on CM5 (carboxymethylated dextran covalently attached to a gold surface) using the amine coupling method according to manufacturer’s recommendation (Biacore, GE Healthcare). Briefly the CM5 surface was activated with the mixture of EDC/NHS. Recombinant proteins at dilution 1 µg/ml in a corresponding buffer i.e. Peroxiredoxin 2 and CCDC101 in sodium acetate buffer 100 mM (pH 4.9). The control channel was activated with EDC/NHS. All channels were thereafter saturated with 0.1 M ethanolamine solution. KH176 andKH176m were solubilized in HBSS at stock solution 1 mM. They were thereafter further diluted in HBSS to final concentrations 0.31e-6M, 0.62e-6M, 1.25e-6M, 2.5e-6M and 5.0e-6M and injected over the flow cells at a flow rate equal to […] for 2 min, followed by a dissociation phase of 4 min. The sensor chip surface was regenerated with 1 mM HCl. The specific binding profiles were obtained after subtracting the response signal from the control empty channel and from blank-buffer injection. The specific binding was calculated using Biaeval 3 software (Biacore, GE Healthcare) with the postulate of 1:1 ligand/analyte interaction. Based on the Chi^2 value in regard to the Rmax (less than 10%) and the difference interval ±2.5 RU theoretic fitting compared to experimental results, best fitting algorithm between Langmuir or drifting base line was applied.

[2] = Single dose pharmacokinetics and bioavailability study; format: in vivo, male Sprague Dawley rats; conditions: male, Sprague Dawley, rat, plasma
Procedure: (§1) Pharmacokinetics and toxicokinetics measurements were performed by the commercial Contract Research Organizations Sai Life Sciences and WuXi AppTec, respectively, according to their standard protocols and in accordance with relevant guidelines and regulations. C57 BL/6 mice, Sprague Dawley rats, and Beagle dogs were studied.

[3] = 28-day repeat oral dose toxicity study, toxicokinetics; format: in vivo, Sprague Dawley rats; conditions: Sprague Dawley, rat, plasma, po; for AUC(0-t): read-out: AUC0–24 h; for Cmax: read-out: Cmax
Procedure: as §1

[4] = as above; format: in vivo, Beagle dogs; conditions: Beagle, dog, plasma, po; for AUC(0-t): read-out: AUC0–24 h; for Cmax: read-out: Cmax
Procedure: as §1

[5] = female, 25 mg/kg, KH176 25 mg/kg/dose BID oral, F, Day 1, plasma
[6] = female, 25 mg/kg, KH176 25 mg/kg/dose BID oral, F, Day 28, plasma
[7] = female, 75 mg/kg, KH176 75 mg/kg/dose BID oral, F, Day 1, plasma
[8] = female, 75 mg/kg, KH176 75 mg/kg/dose BID oral, F, Day 28, plasma
[9] = female, 250 mg/kg, KH176 250 mg/kg/dose BID oral, F, Day 1, plasma
[10] = female, 250 mg/kg, KH176 250 mg/kg/dose BID oral, F, Day 28, plasma
[11] = male, 25 mg/kg, KH176 25 mg/kg/dose BID oral, M, Day 1, plasma
[12] = male, 25 mg/kg, KH176 25 mg/kg/dose BID oral, M, Day 28, plasma
[13] = male, 75 mg/kg, KH176 75 mg/kg/dose BID oral, M, Day 1, plasma
[14] = male, 75 mg/kg, KH176 75 mg/kg/dose BID oral, M, Day 28, plasma
[15] = male, 250 mg/kg, KH176 250 mg/kg/dose BID oral, M, Day 1, plasma
[16] = male, 250 mg/kg, KH176 250 mg/kg/dose BID oral, M, Day 28, plasma
[17] = female, 10 mg/kg, KH176 10 mg/kg/dose BID oral, F, Day 1, plasma
[18] = female, 10 mg/kg, KH176 10 mg/kg/dose BID oral, F, Day 28, plasma
[19] = female, 62.5 mg/kg, KH176 62.5 mg/kg/dose BID oral, F, Day 1, plasma
[20] = female, 62.5 mg/kg, KH176 62.5 mg/kg/dose BID oral, F, Day 28, plasma
[21] = male, 10 mg/kg, KH176 10 mg/kg/dose BID oral, M, Day 1, plasma
[22] = male, 10 mg/kg, KH176 10 mg/kg/dose BID oral, M, Day 28, plasma
[23] = male, 62.5 mg/kg, KH176 62.5 mg/kg/dose BID oral, M, Day 1, plasma
[24] = male, 62.5 mg/kg, KH176 62.5 mg/kg/dose BID oral, M, Day 28, plasma

Binding to Prdx2 (human Prdx2): not | AUC(0-inf) ([2]; iv, KH176 2 mg/kg i.v.): 518 ng·h/mL | AUC(0-t) ([2]; iv, KH176 2 mg/kg i.v.): 510 ng·h/mL | clearance ([2]; iv, KH176 2 mg/kg i.v.): 64.6 mL/min/kg | half-life ([2]; iv, KH176 2 mg/kg i.v.): 156 min | C0 ([2]; iv, KH176 2 mg/kg i.v., back extrapolated): 344 ng/mL | Vd ([2]; iv, KH176 2 mg/kg i.v., read-out: Vss): 7 L/kg | bioavailability ([2]; oral, 10 mg/kg p.o. vs 2 mg/kg i.v., from AUClast, read-out: F (oral bioavailability)): 74% | AUC(0-inf) ([2]; po, KH176 10 mg/kg p.o.): 1930 ng·h/mL | AUC(0-t) ([2]; po, KH176 10 mg/kg p.o.): 1870 ng·h/mL | Cmax ([2]; po, KH176 10 mg/kg p.o.): 594 ng/mL | Tmax ([2]; po, KH176 10 mg/kg p.o., read-out: Tmax): 40.2 min
Structure (SMILES): Cc1c(C)c2c(c(C)c1O)CC[C@@](C)(C(=O)N[C@@H]1CCCNC1)O2.Cl [KH176, (S)-6-hydroxy-2,5,7,8-tetramethyl-N-((R)-piperidin-3-yl)chroman-2-carboxamide hydrochloride]
Potency on mitochondrial superoxide levels (mitoSOX) [1]: much less potent | half-life [3, 5]: 156 min | AUC(0-t) [3, 5]: 12500 ng·h/mL | Cmax [3, 5]: 1360 ng/mL | half-life [3, 6]: 192 min | AUC(0-t) [3, 6]: 19000 ng·h/mL | Cmax [3, 6]: 2270 ng/mL | half-life [3, 7]: 504 min | AUC(0-t) [3, 7]: 42400 ng·h/mL | Cmax [3, 7]: 3050 ng/mL | half-life [3, 8]: 360 min | AUC(0-t) [3, 8]: 76900 ng·h/mL | Cmax [3, 8]: 5340 ng/mL | AUC(0-t) [3, 9]: 104000 ng·h/mL | Cmax [3, 9]: 6970 ng/mL | AUC(0-t) [3, 10]: 243000 ng·h/mL | Cmax [3, 10]: 13300 ng/mL | half-life [3, 11]: 144 min | AUC(0-t) [3, 11]: 10500 ng·h/mL | Cmax [3, 11]: 979 ng/mL | half-life [3, 12]: 336 min | AUC(0-t) [3, 12]: 15600 ng·h/mL | Cmax [3, 12]: 1600 ng/mL | half-life [3, 13]: 270 min | AUC(0-t) [3, 13]: 33100 ng·h/mL | Cmax [3, 13]: 2860 ng/mL | AUC(0-t) [3, 14]: 46200 ng·h/mL | Cmax [3, 14]: 4210 ng/mL | AUC(0-t) [3, 15]: 94000 ng·h/mL | Cmax [3, 15]: 5890 ng/mL | half-life [3, 16]: 498 min | AUC(0-t) [3, 16]: 157000 ng·h/mL | Cmax [3, 16]: 11200 ng/mL | half-life [4, 17]: 84 min | AUC(0-t) [4, 17]: 8840 ng·h/mL | Cmax [4, 17]: 1150 ng/mL | half-life [4, 18]: 120 min | AUC(0-t) [4, 18]: 14600 ng·h/mL | Cmax [4, 18]: 1540 ng/mL | half-life [4, 5]: 108 min | AUC(0-t) [4, 5]: 41900 ng·h/mL | Cmax [4, 5]: 4150 ng/mL | half-life [4, 6]: 150 min | AUC(0-t) [4, 6]: 40000 ng·h/mL | Cmax [4, 6]: 5190 ng/mL | half-life [4, 19]: 102 min | AUC(0-t) [4, 19]: 63100 ng·h/mL | Cmax [4, 19]: 8150 ng/mL | half-life [4, 20]: 138 min | AUC(0-t) [4, 20]: 85500 ng·h/mL | Cmax [4, 20]: 10200 ng/mL | half-life [4, 21]: 84 min | AUC(0-t) [4, 21]: 16400 ng·h/mL | Cmax [4, 21]: 2030 ng/mL | half-life [4, 22]: 108 min | AUC(0-t) [4, 22]: 19000 ng·h/mL | Cmax [4, 22]: 2330 ng/mL | half-life [4, 11]: 108 min | AUC(0-t) [4, 11]: 42600 ng·h/mL | Cmax [4, 11]: 4290 ng/mL | half-life [4, 12]: 120 min | AUC(0-t) [4, 12]: 39900 ng·h/mL | Cmax [4, 12]: 4540 ng/mL | half-life [4, 23]: 108 min | AUC(0-t) [4, 23]: 91500 ng·h/mL | Cmax [4, 23]: 10100 ng/mL | half-life [4, 24]: 144 min | AUC(0-t) [4, 24]: 102000 ng·h/mL | Cmax [4, 24]: 12600 ng/mL
